The source made the active and inactive calls.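 The calls were made as follows: active = IC50 of 10 µM or lower; inactive = IC50 above 10 µM.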
Target: Mitogen-activated protein kinase kinase kinase 5 (Homo sapiens) (UniProt Q99683)
Assay: MAP3K5 inhibition concentration-response curves – biochemical, AlphaScreen, MKK6 phosphorylation, dose response (AID 1159605);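 also: ASK1 phosphorylation of MKK6 substrate detected with anti-phospho-MKK6 antibody beads; inhibitors lower the luminescent signal by blocking MKK6 phosphorylation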
Conditions: ASK1 MKK6 phosphorylation, AlphaScreen luminescence

Mitogen-activated protein kinase kinase kinase 5 (Homo sapiens), sequence (Q99683 whole entry, looked up): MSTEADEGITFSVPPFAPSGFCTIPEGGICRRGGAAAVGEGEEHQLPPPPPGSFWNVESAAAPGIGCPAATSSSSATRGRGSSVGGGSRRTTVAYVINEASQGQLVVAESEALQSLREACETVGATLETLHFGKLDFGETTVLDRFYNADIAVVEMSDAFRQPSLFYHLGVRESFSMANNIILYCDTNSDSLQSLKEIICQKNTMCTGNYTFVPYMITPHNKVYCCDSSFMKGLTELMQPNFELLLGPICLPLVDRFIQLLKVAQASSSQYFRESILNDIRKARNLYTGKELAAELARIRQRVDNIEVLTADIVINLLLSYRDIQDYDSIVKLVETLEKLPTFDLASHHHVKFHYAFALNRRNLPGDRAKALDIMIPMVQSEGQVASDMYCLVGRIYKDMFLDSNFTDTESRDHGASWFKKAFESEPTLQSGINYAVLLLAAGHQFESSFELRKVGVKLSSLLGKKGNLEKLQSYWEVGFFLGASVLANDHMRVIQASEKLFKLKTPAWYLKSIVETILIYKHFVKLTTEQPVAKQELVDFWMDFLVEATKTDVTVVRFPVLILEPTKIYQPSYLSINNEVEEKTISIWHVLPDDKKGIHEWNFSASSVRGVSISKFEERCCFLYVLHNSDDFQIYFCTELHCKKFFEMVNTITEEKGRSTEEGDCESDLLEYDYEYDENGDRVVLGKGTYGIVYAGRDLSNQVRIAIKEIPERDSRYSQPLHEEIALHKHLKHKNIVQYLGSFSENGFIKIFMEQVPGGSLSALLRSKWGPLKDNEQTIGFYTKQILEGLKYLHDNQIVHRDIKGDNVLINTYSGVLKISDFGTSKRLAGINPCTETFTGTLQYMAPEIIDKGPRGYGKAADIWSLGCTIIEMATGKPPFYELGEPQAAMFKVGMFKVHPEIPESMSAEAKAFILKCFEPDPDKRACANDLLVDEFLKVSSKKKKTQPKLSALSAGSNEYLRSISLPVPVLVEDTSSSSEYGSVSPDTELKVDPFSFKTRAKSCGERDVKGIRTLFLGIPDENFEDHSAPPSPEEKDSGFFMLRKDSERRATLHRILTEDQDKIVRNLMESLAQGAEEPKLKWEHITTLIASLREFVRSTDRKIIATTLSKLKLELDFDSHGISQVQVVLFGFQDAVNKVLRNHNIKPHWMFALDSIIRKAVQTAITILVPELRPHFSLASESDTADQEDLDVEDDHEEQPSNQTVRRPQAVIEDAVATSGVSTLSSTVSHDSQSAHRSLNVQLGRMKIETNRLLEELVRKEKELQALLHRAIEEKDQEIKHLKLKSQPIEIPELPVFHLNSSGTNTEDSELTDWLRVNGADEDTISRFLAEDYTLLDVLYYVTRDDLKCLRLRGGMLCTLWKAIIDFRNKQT

IC50 | Structure (SMILES)
inactive | COc1cc2nc(Nc3ccncc3)nc(Nc3ccc(N4CCOCC4)cc3)c2cc1OC
inactive | COc1ccc(CCNc2nc(Nc3ccc(N4CCOCC4)cc3)ncc2C)cc1
> 19.2 µM (inactive) | COc1cc(NC(=O)c2cccc(-n3cc(NC(=O)Nc4ccc(-c5ccccc5)cc4)cn3)c2)cc(OC)c1OC
> 20 µM (inactive) | CN(C)c1cccc(Nc2nc(NCCc3ccc(O)cc3)c3ncn(-c4ccccc4)c3n2)c1
> 20 µM (inactive) | c1ccc(Oc2ccc(Nc3nc(N4CCc5ccccc5C4)nc4c3ncn4-c3ccccc3)cc2)cc1
inactive | c1ccc2c(c1)CCN(c1nccc(Nc3ccc(N4CCOCC4)cc3)n1)C2
inactive | CC(C)n1cnc2c(Nc3ccc(Oc4ccccc4)cc3)nc(N3CCOCC3)nc21
inactive | COc1ccc(CCNc2nc(Nc3cccc(N(C)C)c3)nc3cc(OC)c(OC)cc23)cc1
inactive | c1ccc(CN2CCC(Nc3nc(N4CCN(Cc5ccc6c(c5)OCO6)CC4)nc4c3ncn4C3CCCCC3)CC2)cc1
> 19.2 µM (inactive) | O=C(Nc1ccc(-c2ncnc3[nH]ccc23)cc1)C1COc2ccccc2O1 (stereo not drawn)
inactive | COc1cc2nc(Nc3cccc(N(C)C)c3)nc(Nc3ccccc3)c2cc1OC
inactive | CC(C)n1cnc2c(Nc3ccc(N4CCOCC4)cc3)nc(N3CCN(Cc4ccc5c(c4)OCO5)CC3)nc21
> 21.8 µM (inactive) | Cc1cnc(Nc2nc3ccccc3n2C)nc1Nc1ccc(N2CCOCC2)cc1
> 19.2 µM (inactive) | Fc1ccc(-c2c(-c3ccnc(Nc4ccc(N5CCOCC5)cc4)c3)noc2NCc2ccccc2)cc1
inactive | COc1cc2nc(Nc3ccc(N4CCOCC4)cc3)nc(Nc3ccc4c(c3)OCO4)c2cc1OC
inactive | CC(C)n1cnc2c(Nc3ccc4c(c3)OCO4)nc(NCc3ccc4c(c3)OCO4)nc21
inactive | Cc1cc(Nc2ccc3c(c2)OCO3)nc(Nc2ccc(N3CCOCC3)cc2)n1

IC50 | Structure (SMILES)
6.84 µM | COc1cc(Nc2ccnc(Nc3cccc(N(C)C)c3)n2)cc(OC)c1OC
> 19.2 µM (inactive) | c1cc(-n2cnc(N3CCOCC3)n2)ccc1Nc1ncc2ccc(-c3cn[nH]n3)cc2n1
> 17.5 µM (inactive) | COc1cc2nc(Nc3ccc(N4CCOCC4)cc3)nc(Nc3ccc(OCCN4CCCCC4)cc3)c2cc1OC
> 20 µM (inactive) | COc1ccc(CCNc2nc(Nc3cccc(N(C)C)c3)nc3c2ncn3C(C)C)cc1
inactive | COc1cc2nc(Nc3nccc4ccccc34)nc(Nc3ccc(NC(C)=O)cc3)c2cc1OC
> 20.1 µM (inactive) | Cc1cnc(-c2csc3ccccc23)nc1Nc1ccc(N2CCOCC2)cc1
8.79 µM | CCN(CC)c1nc(Nc2ccc(N3CCOCC3)cc2)nc(Nc2ccc(-n3ccnc3)cc2)n1
> 23.1 µM (inactive) | Nc1nc(Nc2ccc(N3CCOCC3)cc2)cc(NC2CCN(Cc3ccccc3)CC2)n1
> 24 µM (inactive) | COc1cc2nc(Nc3ccccc3)nc(Nc3ccc(N4CCOCC4)cc3)c2cc1OC
> 19.2 µM (inactive) | Cc1nc(C)n(-c2ccc(Nc3nccc(-c4cc(F)cc(-c5ncco5)c4)n3)cc2)n1
> 20.1 µM (inactive) | COc1cc2nc(Nc3ccc(N4CCOCC4)cc3)nc(Nc3ccccc3)c2cc1OC
> 19.9 µM (inactive) | COc1cc2nc(NCc3ccc4c(c3)OCO4)nc(Nc3ccc(N4CCOCC4)cc3)c2cc1OC
> 20 µM (inactive) | CN(C)c1cccc(Nc2nc(NCCc3ccc(O)cc3)c3ncn(C4CCCCC4)c3n2)c1
> 19.2 µM (inactive) | OC1CCN(c2ccc(Nc3nccc(-c4cc(F)cc(N5CCN(C6CC6)CC5)c4)n3)cc2)CC1
inactive | CN(C)c1cccc(Nc2nc(NCCc3ccc(O)cc3)c3ncn(Cc4ccc(C(F)(F)F)cc4)c3n2)c1
> 19.2 µM (inactive) | CN(C)c1cc(F)cc(-c2ccnc(Nc3ccc(-n4cnc(N5CCC(O)CC5)n4)cc3)n2)c1
